Test results: ChEMBL document CHEMBL3885861, “Open TG-GATES”

Organism: Rattus norvegicus
Experiment: Open TG-GATES - Regimen: Daily Repeat
Type: toxicity, organism-based, Sprague-Dawley
Design: regimen Daily Repeat, gender Male, age 6 weeks
Details: in vivo, po, 0 mg/kg, route gavage, dose level Control; for APTT / Bas / Eos / Fbg / Hb / Ht / Lym / MCH / MCHC / MCV / Mono / Neu / PT / Plat / RBC / Ret / WBC: tissue Blood; for KIDNEY_L / KIDNEY_R / KIDNEY_TOTAL: tissue Kidney; for LIVER: tissue Liver; for A/G / ALP / ALT / AST / BUN / CRE / Ca / Cl / DBIL / GLC / IP / K / LDH / Na / PL / RALB / TBIL / TC / TG / TP / gamma-GTP: tissue Plasma

Molecule Nc1nc(N)c2nc(-c3ccccc3)c(N)nc2n1 has a TERMINAL_BW (72 h, time 3 day) of 242.6 g, an APTT (72 h, time 3 day) of 16.3 s and a Bas (72 h, time 3 day) of 0.2%. It also gave an Eos (72 h, time 3 day) of 1%, a Fbg (72 h, time 3 day) of 334.2 mg/dL and a Hb (72 h, time 3 day) of 13.8 g/dL. It also gave a Ht (72 h, time 3 day) of 40.7%, a Lym (72 h, time 3 day) of 78.8% and an MCH (72 h, time 3 day) of 20.8 pg. The MCHC (72 h, time 3 day) was 33.9%, the MCV (72 h, time 3 day) was 61.3 fL and the Mono (72 h, time 3 day) was 2.2%. For the same molecule, the Neu (72 h, time 3 day) was 17.2%, the PT (72 h, time 3 day) was 13.9 s and the Plat (72 h, time 3 day) was 128.5 x10_4/uL. For the same molecule, the RBC (72 h, time 3 day) was 664.4 x10_4/ul, the Ret (72 h, time 3 day) was 6.2% and the WBC (72 h, time 3 day) was 102.2 x10_2/uL. For the same molecule, the KIDNEY_L (72 h, time 3 day) was 1.1 g, the KIDNEY_R (72 h, time 3 day) was 1.1 g and the KIDNEY_TOTAL (72 h, time 3 day) was 2.1 g. The LIVER (72 h, time 3 day) was 11.1 g, the A/G (72 h, time 3 day) was 0.9 and the ALP (72 h, time 3 day) was 1605.2 IU/L. For the same molecule, the ALT (72 h, time 3 day) was 41.4 IU/L, the AST (72 h, time 3 day) was 69.4 IU/L and the BUN (72 h, time 3 day) was 15 mg/dL. For the same molecule, the CRE (72 h, time 3 day) was 0.2 mg/dL, the Ca (72 h, time 3 day) was 10.9 mg/dL and the Cl (72 h, time 3 day) was 105.2 meq/L. The DBIL (72 h, time 3 day) was 0.01 mg/dL, the GLC (72 h, time 3 day) was 166 mg/dL and the IP (72 h, time 3 day) was 7.7 mg/dL. The K (72 h, time 3 day) was 4.1 meq/L, the LDH (72 h, time 3 day) was 60.2 IU/L and the Na (72 h, time 3 day) was 142.6 meq/L. The PL (72 h, time 3 day) was 152.4 mg/dL, the RALB (72 h, time 3 day) was 2.6 g/dL and the TBIL (72 h, time 3 day) was 0.042 mg/dL. It also gave a TC (72 h, time 3 day) of 80.6 mg/dL, a TG (72 h, time 3 day) of 102.4 mg/dL and a TP (72 h, time 3 day) of 5.6 g/dL. The gamma-GTP (72 h, time 3 day) was 1 IU/L, the TERMINAL_BW ([…], time 7 day) was 286.3 g and the TERMINAL_BW ([…], time 14 day) was 328 g. It also gave a TERMINAL_BW ([…], time 28 day) of 424 g, an APTT ([…], time 7 day) of 18 s and a Bas ([…], time 7 day) of 0%. It also gave an Eos ([…], time 7 day) of 0.6%, a Fbg ([…], time 7 day) of 302.8 mg/dL and a Hb ([…], time 7 day) of 13.9 g/dL. The Ht ([…], time 7 day) was 42.9%, the Lym ([…], time 7 day) was 78.8% and the MCH ([…], time 7 day) was 20.6 pg. It also gave an MCHC ([…], time 7 day) of 32.5%, an MCV ([…], time 7 day) of 63.6 fL and a Mono ([…], time 7 day) of 2.6%. The Neu ([…], time 7 day) was 17.6%, the PT ([…], time 7 day) was 13.3 s and the Plat ([…], time 7 day) was 136.4 x10_4/uL. It also gave an RBC ([…], time 7 day) of 675.8 x10_4/ul, a Ret ([…], time 7 day) of 5.9% and a WBC ([…], time 7 day) of 94 x10_2/uL. The APTT ([…], time 14 day) was 18.4 s, the Bas ([…], time 14 day) was 0% and the Eos ([…], time 14 day) was 1%. The Fbg ([…], time 14 day) was 313.2 mg/dL, the Hb ([…], time 14 day) was 14.6 g/dL and the Ht ([…], time 14 day) was 44.3%. For the same molecule, the Lym ([…], time 14 day) was 78.4%, the MCH ([…], time 14 day) was 19.5 pg and the MCHC ([…], time 14 day) was 33%. For the same molecule, the MCV ([…], time 14 day) was 59.2 fL, the Mono ([…], time 14 day) was 2.6% and the Neu ([…], time 14 day) was 18%. For the same molecule, the PT ([…], time 14 day) was 13.2 s, the Plat ([…], time 14 day) was 132.7 x10_4/uL and the RBC ([…], time 14 day) was 748 x10_4/ul. It also gave a Ret ([…], time 14 day) of 3.7%, a WBC ([…], time 14 day) of 91.5 x10_2/uL and an APTT ([…], time 28 day) of 18 s. It also gave a Bas ([…], time 28 day) of 0.6%, an Eos ([…], time 28 day) of 1.2% and a Fbg ([…], time 28 day) of 294.6 mg/dL. The Hb ([…], time 28 day) was 15.4 g/dL, the Ht ([…], time 28 day) was 46.3% and the Lym ([…], time 28 day) was 82.6%. For the same molecule, the MCH ([…], time 28 day) was 18.8 pg, the MCHC ([…], time 28 day) was 33.3% and the MCV ([…], time 28 day) was 56.5 fL. For the same molecule, the Mono ([…], time 28 day) was 2.2%, the Neu ([…], time 28 day) was 13.6% and the PT ([…], time 28 day) was 13 s. It also gave a Plat ([…], time 28 day) of 111.3 x10_4/uL, an RBC ([…], time 28 day) of 819.6 x10_4/ul and a Ret ([…], time 28 day) of 2.3%. For the same molecule, the WBC ([…], time 28 day) was 87 x10_2/uL, the KIDNEY_L ([…], time 7 day) was 1.2 g and the KIDNEY_R ([…], time 7 day) was 1.2 g. For the same molecule, the KIDNEY_TOTAL ([…], time 7 day) was 2.3 g, the KIDNEY_L ([…], time 14 day) was 1.2 g and the KIDNEY_R ([…], time 14 day) was 1.2 g. It also gave a KIDNEY_TOTAL ([…], time 14 day) of 2.4 g, a KIDNEY_L ([…], time 28 day) of 1.5 g and a KIDNEY_R ([…], time 28 day) of 1.4 g. The KIDNEY_TOTAL ([…], time 28 day) was 2.9 g, the LIVER ([…], time 7 day) was 13.7 g and the LIVER ([…], time 14 day) was 13.8 g. It also gave an LIVER ([…], time 28 day) of 16.7 g, an A/G ([…], time 7 day) of 0.9 and an ALP ([…], time 7 day) of 1612.4 IU/L. The ALT ([…], time 7 day) was 43.2 IU/L, the AST ([…], time 7 day) was 63.4 IU/L and the BUN ([…], time 7 day) was 16.2 mg/dL. The CRE ([…], time 7 day) was 0.2 mg/dL, the Ca ([…], time 7 day) was 11.1 mg/dL and the Cl ([…], time 7 day) was 104.4 meq/L. The DBIL ([…], time 7 day) was 0.014 mg/dL, the GLC ([…], time 7 day) was 186.2 mg/dL and the IP ([…], time 7 day) was 7.7 mg/dL. The K ([…], time 7 day) was 4.3 meq/L, the LDH ([…], time 7 day) was 63.4 IU/L and the Na ([…], time 7 day) was 142.4 meq/L. It also gave a PL ([…], time 7 day) of 179.4 mg/dL, an RALB ([…], time 7 day) of 2.7 g/dL and a TBIL ([…], time 7 day) of 0.076 mg/dL. It also gave a TC ([…], time 7 day) of 90.2 mg/dL, a TG ([…], time 7 day) of 133 mg/dL and a TP ([…], time 7 day) of 5.8 g/dL. It also gave a gamma-GTP ([…], time 7 day) of 1 IU/L, an A/G ([…], time 14 day) of 0.8 and an ALP ([…], time 14 day) of 1497.6 IU/L. The ALT ([…], time 14 day) was 34 IU/L, the AST ([…], time 14 day) was 60 IU/L and the BUN ([…], time 14 day) was 14.6 mg/dL. For the same molecule, the CRE ([…], time 14 day) was 0.2 mg/dL, the Ca ([…], time 14 day) was 10.6 mg/dL and the Cl ([…], time 14 day) was 105.6 meq/L. It also gave a DBIL ([…], time 14 day) of 0.01 mg/dL, a GLC ([…], time 14 day) of 191.6 mg/dL and an IP ([…], time 14 day) of 7.5 mg/dL. It also gave a K ([…], time 14 day) of 4 meq/L, an LDH ([…], time 14 day) of 60.4 IU/L and a Na ([…], time 14 day) of 143 meq/L. For the same molecule, the PL ([…], time 14 day) was 154.4 mg/dL, the RALB ([…], time 14 day) was 2.7 g/dL and the TBIL ([…], time 14 day) was 0.068 mg/dL. It also gave a TC ([…], time 14 day) of 72.8 mg/dL, a TG ([…], time 14 day) of 141.6 mg/dL and a TP ([…], time 14 day) of 5.9 g/dL. The gamma-GTP ([…], time 14 day) was 1 IU/L, the A/G ([…], time 28 day) was 0.8 and the ALP ([…], time 28 day) was 1077.6 IU/L. It also gave an ALT ([…], time 28 day) of 40 IU/L, an AST ([…], time 28 day) of 67.4 IU/L and a BUN ([…], time 28 day) of 16 mg/dL. The CRE ([…], time 28 day) was 0.2 mg/dL, the Ca ([…], time 28 day) was 10.8 mg/dL and the Cl ([…], time 28 day) was 104.2 meq/L. The DBIL ([…], time 28 day) was 0.012 mg/dL, the GLC ([…], time 28 day) was 194.8 mg/dL and the IP ([…], time 28 day) was 6.5 mg/dL. It also gave a K ([…], time 28 day) of 3.8 meq/L, an LDH ([…], time 28 day) of 76.4 IU/L and a Na ([…], time 28 day) of 143.4 meq/L. It also gave a PL ([…], time 28 day) of 144.8 mg/dL, an RALB ([…], time 28 day) of 2.8 g/dL and a TBIL ([…], time 28 day) of 0.066 mg/dL. It also gave a TC ([…], time 28 day) of 68.2 mg/dL, a TG ([…], time 28 day) of 149.6 mg/dL and a TP ([…], time 28 day) of 6.3 g/dL. The gamma-GTP ([…], time 28 day) was 1 IU/L.
